Results taken from PubChem BioAssay (NCI).
Where “and” joins values, the source holds several entries; their conditions need not be identical. Identical values can stand only once.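 48-hour exposure; five concentrations; linearly interpolated endpoints. At the GI50, growth is halved. Definition used: TGI = concentration required for complete inhibition of growth.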

Tests used:
Assay in all cases: NCI tumour cell line growth inhibition, 48 h
[1] = tested on: SF-268 CNS
[2] = tested on: A549 NSCLC
[3] = tested on: UACC-257 melanoma
[4] = tested on: BT-549 breast
[5] = tested on: SK-OV-3 ovarian
[6] = tested on: SK-MEL-5 melanoma
[7] = tested on: IGROV1 ovarian
[8] = tested on: M14 melanoma
[9] = tested on: MDA-MB-435
[10] = tested on: HOP-92 NSCLC

Structure (SMILES)	GI50 [1]	TGI [1]	GI50 [2]	TGI [2]	GI50 [3]	TGI [3]	GI50 [4]	TGI [4]	GI50 [5]	TGI [5]	GI50 [6]	TGI [6]	GI50 [7]	TGI [7]	GI50 [8]	TGI [8]	GI50 [9]	TGI [9]	GI50 [10]	TGI [10]
O=C(CCN1CCCN(c2cnc3ccccc3n2)CC1)c1csc2ccccc12	19.4 µM	38.6 µM	> 100 µM	> 100 µM	26.1 µM	63.2 µM	18.4 µM	32.3 µM	> 100 µM	> 100 µM	16.2 µM	30 µM	16.2 µM	31.2 µM	19.8 µM	39.3 µM	18.1 µM	32.2 µM	15.8 µM	34 µM
NC1(C(=O)N[C@@H](CCO)c2ccc(Cl)cc2)CCN(c2ncnc3[nH]ccc23)CC1	> 2.26 µM and 32.2 µM	> 100 µM	> 3.15 µM and 12 µM	> 92.1 µM	3.8 µM and 7.39 µM	> 100 µM	0.366 µM and 0.624 µM	> 5.01 µM and 13 µM	0.306 µM and 0.842 µM	> 3.09 µM and 38.5 µM	> 3.51 µM and 19.1 µM	> 5.59 µM and 62 µM	0.102 µM and 0.27 µM	> 100 µM	> 2.68 µM and 9.15 µM	> 81.4 µM	2.34 µM and 4.94 µM	> 100 µM	0.167 µM and 0.144 µM	1.54 µM and 1.53 µM
CC(C)C1=CC2=C(C(=O)C1=O)C13CCCC(C)(C)C1CC2OC3=O (stereo unspecified)		55.8 µM		> 100 µM		71 µM		37.4 µM		> 100 µM		55.1 µM		32.2 µM		70.6 µM		43.2 µM		37.3 µM
CN(C)C1CN(C(=O)c2cc(-c3ccc4ncnc(N5CCc6cc(F)c(Cl)cc65)c4c3)cnc2N)C1	0.652 µM	> 100 µM	0.486 µM	> 100 µM	1.54 µM	> 28.1 µM	0.436 µM	4.02 µM	1.17 µM	> 100 µM	1.54 µM	2.92 µM	0.223 µM	1.23 µM	0.886 µM	> 100 µM	0.687 µM		0.331 µM	2.17 µM
c1ccc(CC(Nc2cccnc2)c2ccccc2)cc1 (stereo unspecified)		> 100 µM		> 100 µM		49.8 µM		65.6 µM		> 100 µM		29.4 µM		> 100 µM		37.9 µM		64.4 µM		35.9 µM
COc1cc(C(=O)NN=C2c3ccccc3-c3ccccc32)cc(OC)c1OC	4.57 µM	27.7 µM	3.26 µM	> 100 µM	3.33 µM	34.2 µM	3.78 µM	28.9 µM	4.12 µM	> 100 µM	2.65 µM	18 µM	3.47 µM	32.9 µM	2.58 µM	92.4 µM	0.3 µM	1.46 µM		
CO/C(=C1/NC(=O)C(Cc2ccc(O)c(Br)c2)N(C)C(=O)C(C)NC(=O)CCC/C=C(\C)CCC(C)OC1=O)c1ccccc1 (stereo unspecified)	0.0267 µM	0.0767 µM	< 0.0141 µM	0.471 µM	0.029 µM	0.15 µM	0.0368 µM	0.105 µM	0.0245 µM	0.0662 µM	0.0327 µM	0.387 µM	0.0199 µM	0.0465 µM	< 0.0205 µM		0.0385 µM	13.3 µM	0.0246 µM	0.0612 µM
COc1cc(N2CCC(N)CC2)ccc1Nc1ncc(Cl)c(-c2c[nH]c3ccccc23)n1	0.846 µM	3.35 µM	0.248 µM	1.65 µM	1.02 µM	2.34 µM	1.56 µM	3.39 µM	0.68 µM	2.8 µM	1.49 µM	2.84 µM	0.405 µM	2.23 µM	0.373 µM	1.73 µM	0.266 µM	1.77 µM	0.035 µM	0.345 µM
O=c1/c(=C\c2ccc(Br)cc2)sc2n1C(c1ccc(Br)cc1)C1=C(N=2)c2ccc3ccccc3c2OCC1 (stereo unspecified)	> 100 µM	> 100 µM	> 100 µM	> 100 µM	> 100 µM	> 100 µM	> 100 µM	> 100 µM	> 100 µM	> 100 µM	> 100 µM	> 100 µM	> 100 µM	> 100 µM	> 100 µM	> 100 µM	> 100 µM	> 100 µM	> 100 µM	> 100 µM
COc1ccc(/C=C\c2cc(OC)c(OC)c(OC)c2)c(NS(=O)(=O)c2ccc(F)cc2)c1O	0.224 µM	> 100 µM	0.164 µM	> 100 µM	20.5 µM	> 100 µM	0.0619 µM	16.8 µM	0.211 µM	> 100 µM	0.102 µM	0.515 µM	0.212 µM	> 100 µM	0.0326 µM	> 100 µM	0.0204 µM	0.0515 µM	0.0723 µM	16.7 µM
O=C(NN1C(=O)CSC1c1c(Cl)cccc1Cl)C(O)c1ccccc1 (stereo unspecified)	60 µM	> 100 µM	21.2 µM	81.6 µM	31 µM	94.5 µM	80 µM	> 100 µM	> 100 µM	> 100 µM	32.8 µM	> 100 µM	40.8 µM	> 100 µM	35.7 µM	> 100 µM	25 µM	> 100 µM	20.9 µM	98.9 µM
COc1cc2c(cc1OCCCN1CCN(C(=S)SCCC(C#N)(c3ccccc3)c3ccccc3)CC1)N=C[C@@H]1CCCN1C2=O	0.386 µM		1.25 µM	7.36 µM	1.99 µM	3.9 µM	1.07 µM	3.79 µM	2.52 µM	6.39 µM	1.31 µM	2.75 µM	0.381 µM	1.74 µM	1.17 µM	2.67 µM	0.555 µM	2.94 µM	0.545 µM	3.85 µM
Nc1c(C(=O)Nc2cccc(C(F)(F)F)c2)sc2nc3c(cc12)CCCCCC3	2.36 µM	6.77 µM	1.77 µM	5.08 µM	4.37 µM	22.7 µM	2.54 µM	9.59 µM	2.26 µM	6.29 µM	2.15 µM	15 µM			3.4 µM	18 µM	2.1 µM	13.9 µM	1.7 µM	4.86 µM
COc1cc2c(cc1-c1coc3cc(O)ccc3c1=O)OCO2		43.6 µM		77.4 µM		85.1 µM		41.2 µM		37.3 µM		> 100 µM		53.7 µM		> 100 µM		> 100 µM		67.6 µM
CC(=O)Nc1cc2c3c(cccc3c1)-c1ccccc1-2	8.94 µM	> 100 µM	3.72 µM	> 100 µM	90.3 µM	> 100 µM	64.6 µM	> 100 µM	26.5 µM	84.3 µM	> 100 µM	> 100 µM	24.2 µM	> 100 µM	> 100 µM	> 100 µM	30 µM	> 100 µM	17.8 µM	44.8 µM
Cc1cnc(-c2ccc(-c3ccc(NC(=O)Nc4c(F)cc(F)cc4F)cc3F)c3c2C(=O)NC3)[nH]1	1.17 µM and 3.25 µM	20.6 µM and 22.9 µM	1.29 µM and 1.11 µM	8.23 µM and 10.8 µM	0.333 µM and 0.97 µM	10.2 µM and 14.5 µM	1.19 µM and 1.69 µM	19.2 µM and 16.1 µM	1.42 µM and 3.59 µM	18.3 µM and 23.3 µM	0.852 µM and 2.09 µM	9.16 µM and 14.1 µM	0.824 µM and 1.31 µM	6.63 µM and 18.8 µM	0.0392 µM and 0.211 µM	1.99 µM and 17.1 µM	0.483 µM	4.29 µM	1.31 µM and 2.01 µM	6.37 µM and 12.1 µM
COC(=O)Nc1nc2ccc(C(=O)c3ccc(F)cc3)cc2[nH]1	0.644 µM	7.65 µM	0.468 µM	> 100 µM	68 µM	> 100 µM	2.44 µM	> 100 µM	0.51 µM	11.2 µM	0.242 µM	> 24.2 µM	0.513 µM	> 66.1 µM	0.173 µM	> 100 µM	0.0335 µM	0.155 µM	4.81 µM	50.3 µM
C=C(Br)COc1ccc2c(C)cc(=O)oc2c1		> 100 µM		> 100 µM		> 100 µM		> 100 µM				37.4 µM		> 100 µM		> 100 µM		> 100 µM		> 100 µM
CC(=O)N[C@@H](Cc1ccc(OP(=O)(O)O)cc1)C(=O)N[C@H]1CCC(=O)N2CCC[C@@H](C(=O)NC3CCc4ccccc43)N2C1=O (stereo partly specified)	> 25 µM	> 25 µM	> 25 µM	> 25 µM	> 25 µM	> 25 µM	> 25 µM	> 25 µM	> 25 µM	> 25 µM	> 25 µM	> 25 µM	> 25 µM	> 25 µM	> 25 µM	> 25 µM	> 25 µM	> 25 µM	> 25 µM	> 25 µM
C[C@]12CC[C@H]3[C@@H](CC[C@]4(O)C[C@@H](O[C@@H]5O[C@H](CO)[C@@H](O[C@@H]6OC[C@@H](O)[C@H](O)[C@H]6O)[C@H](O)[C@H]5O)CC[C@]34C=O)[C@@]1(O)CC[C@@H]2C1=CC(=O)OC1	0.739 µM	2.42 µM	0.581 µM	1.28 µM	2.34 µM	9.02 µM	1.06 µM	5.2 µM	1.75 µM	7.69 µM	1.22 µM	2.88 µM	1.84 µM	17.6 µM	2.38 µM	10.5 µM	1.71 µM	6.17 µM		
CC/C(=C(/c1ccc(OCCN(C)C)cc1)c1ccc(OC(=O)CCCCCCCCC(=O)c2c(C)[nH]c(/C=C3\N=C(c4ccc[nH]4)C=C3OC)c2C)cc1)c1ccccc1	6.63 µM	> 100 µM	4.13 µM	> 100 µM	62.5 µM	> 100 µM	5.21 µM	> 100 µM	> 100 µM	> 100 µM	1.61 µM	3.2 µM	23.1 µM	> 100 µM	2.15 µM	4.48 µM	4.63 µM	> 100 µM		
CN1CCN(CCC=C2c3ccccc3Sc3ccc(S(=O)(=O)N(C)C)cc32)CC1			5.69 µM and 9.71 µM	> 100 µM and 31.5 µM	2.02 µM and 1.8 µM	3.73 µM and 4.03 µM	8.06 µM and 13 µM	23 µM and 29.2 µM	9.22 µM and 13.6 µM	24.7 µM and 30.7 µM	1.58 µM	2.95 µM and 3.02 µM	5.13 µM and 8.26 µM	23.3 µM and 25.7 µM	1.97 µM and 2.1 µM	3.63 µM and 4.57 µM	1.89 µM and 2.08 µM	4.28 µM and 5.82 µM	0.516 µM and 2.84 µM	4.54 µM and 20.3 µM
O=C1OCC2=C1C(c1cccc(Cl)c1)c1cc3c(cc1N2CCO)CCC3 (stereo unspecified)	0.0653 µM	10.5 µM	0.0477 µM	6.45 µM	0.0354 µM	15.6 µM	0.166 µM	8.69 µM	0.0414 µM	7.8 µM	0.0291 µM	0.28 µM	0.121 µM	15.6 µM	0.0366 µM	4.46 µM	0.02 µM	0.0491 µM		
COC(=O)c1c2c(c(C)[n+]([O-])c1C)C(=O)C(NCc1ccc(O)cc1)=CC2=O	1.64 µM	3.53 µM	1.93 µM	4.6 µM	0.556 µM	1.97 µM	1.43 µM	2.91 µM			1.27 µM	2.59 µM	1.59 µM	3.78 µM	1.55 µM	3.12 µM	1.68 µM	3.19 µM	2.52 µM	5.12 µM
CN(C)CCCCNc1ccc(NCCCCN(C)C)c2c1C(=O)c1c(O)ccc(O)c1C2=O	10.4 µM	22.1 µM	1.57 µM	2.94 µM	18.4 µM	32.3 µM	16 µM	29.5 µM	3.06 µM	9.8 µM	13.5 µM	26.3 µM	1.52 µM	3.03 µM	1.81 µM	3.2 µM	13.3 µM	26.1 µM		
CCN(CC)CC(O)c1cc(-c2ccc(Cl)cc2)nc2c(C)c(Cl)ccc12 (stereo unspecified)	1.61 µM	3.05 µM			2.12 µM	3.81 µM	2.27 µM	4.49 µM	1.71 µM	3.28 µM	1.7 µM	3.11 µM	1 µM	2.36 µM	1.91 µM	3.48 µM	1.74 µM	3.29 µM		
